Holding throughout (test): In vitro enzymatic assay (Nitrocefin)
What all share (type): biochemical

Assay [1] concerns the target OXA-2 (Class D) β-lactamase (Escherichia coli, UniProt P0A1V9). The protocol:
(§1) 2) Prepare buffer solution A (1×PBS, pH 7.4, 0.1 mg/mL BSA) for enzymatic assay;
(§2) 3) The compound mother liquor was 4-fold serial diluted for 11 times with DMSO in a 96-well tip-bottom plate, which was used as a working solution. A 96-well flat bottom plate was used as a test plate, the corresponding reaction buffer was previously added to each well, followed by addition of a corresponding volume of the working solution (100 μM-0.095 nM and 0 nM). Wherein, EDTA-Na2 was used as a control for the NDM-1 test at a concentration of 20 mM;
(§3) 4) adding the corresponding β-lactamase, and the test plate was incubated at 37° C. for 5 minutes;
(§4) 5) Adding 5 μL Nitrocefin (the final reaction volume was 100 μL), the absorbance OD490 of the reaction solution in the plate was measured by a microplate reader and the result was recorded, the absorbance was measured every minute over 30 minutes;
(§5) 6) The microplate reader could give a curve of OD490 over time. The slope of the curve (Abs2−Abs1)/(T2−T1) was calculated by taking two data points Abs1 and Abs2 within the linear range of the curve.
(§6) 7) The relative inhibition rate was calculated as follows: Slope (EC) was calculated under the condition of absence of an inhibitor, and Slop(S) was calculated under the condition of an inhibitor at a certain concentration.
(§7) The relative inhibition rate and the corresponding concentration of the inhibitor were used to calculate the IC50 value of the inhibitor on β-lactamase. In this experiment, the IC50 was calculated using the formula of GraphPad Prism 5.0, log(inhibitor) vs. normalized response-Variable slope.

Assay [2] concerns the target KPC (Class A) β-lactamase (Klebsiella pneumoniae, UniProt Q9F663). The protocol: as §1, §2, §3, §4, §5, §6, §7
The target of assay [3] is AmpC-EC (Class C) β-lactamase (UniProt P05364). The note with it: Nitrocefin 0.1 mM, 1 × PBS pH 7.4, 0.1 mg/mL BSA, read-out: IC50, inhibitory activity on β-lactamase. On the procedure: as §1, §2, §3, §4, §5, §6, §7
In assay [4] the target is CTX-M-44 (Class C) β-lactamase (Escherichia coli, UniProt Q47066). The protocol: as §1, §2, §3, §4, §5, §6, §7
Sequence of CTX-M-44 (Class C) β-lactamase (Q47066 30-291): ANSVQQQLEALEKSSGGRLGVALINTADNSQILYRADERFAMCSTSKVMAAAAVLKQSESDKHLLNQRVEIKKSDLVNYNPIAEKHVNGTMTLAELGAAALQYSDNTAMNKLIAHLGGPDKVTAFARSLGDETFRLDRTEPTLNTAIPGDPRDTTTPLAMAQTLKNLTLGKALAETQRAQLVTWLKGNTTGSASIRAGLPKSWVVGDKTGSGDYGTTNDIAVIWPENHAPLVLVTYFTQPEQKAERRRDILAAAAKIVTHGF
Assay [5] deals with AmpC-PA (Class C) β-lactamase (Pseudomonas aeruginosa, UniProt P24735). On the procedure:
as §1, §2, §3, §4, §5, §6, §7

Assay [6] addresses OXA-9 (Class D) β-lactamase (Klebsiella pneumoniae, UniProt P0A3M3). On the procedure:
as §1, §2, §3, §4, §5, §6, §7

In assay [7] the target is TEM-1 (Class A) β-lactamase (Escherichia coli, UniProt P62593). The note with it: Nitrocefin 0.1 mM, 1 × PBS pH 7.4, 0.1 mg/mL BSA, read-out: IC50, inhibitory activity on β-lactamase. The protocol:
as §1, §2, §3, §4, §5, §6, §7

Sequence of OXA-2 (Class D) β-lactamase (P0A1V9 22-275): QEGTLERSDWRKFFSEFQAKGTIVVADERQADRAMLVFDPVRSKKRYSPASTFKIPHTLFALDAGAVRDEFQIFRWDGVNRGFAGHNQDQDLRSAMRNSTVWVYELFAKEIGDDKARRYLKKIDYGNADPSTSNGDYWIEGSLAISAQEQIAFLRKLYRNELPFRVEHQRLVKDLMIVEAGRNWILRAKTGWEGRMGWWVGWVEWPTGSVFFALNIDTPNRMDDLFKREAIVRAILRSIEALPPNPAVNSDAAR
Sequence of OXA-9 (Class D) β-lactamase (P0A3M3 25-274): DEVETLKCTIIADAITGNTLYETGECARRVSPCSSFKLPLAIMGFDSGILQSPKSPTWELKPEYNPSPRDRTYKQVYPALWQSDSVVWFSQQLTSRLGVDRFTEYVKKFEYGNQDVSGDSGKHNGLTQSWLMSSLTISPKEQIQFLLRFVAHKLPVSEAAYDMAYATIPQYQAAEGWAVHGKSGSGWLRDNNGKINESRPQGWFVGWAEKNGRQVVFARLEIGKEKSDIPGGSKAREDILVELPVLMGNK
Sequence of AmpC-PA (Class C) β-lactamase (P24735 27-397): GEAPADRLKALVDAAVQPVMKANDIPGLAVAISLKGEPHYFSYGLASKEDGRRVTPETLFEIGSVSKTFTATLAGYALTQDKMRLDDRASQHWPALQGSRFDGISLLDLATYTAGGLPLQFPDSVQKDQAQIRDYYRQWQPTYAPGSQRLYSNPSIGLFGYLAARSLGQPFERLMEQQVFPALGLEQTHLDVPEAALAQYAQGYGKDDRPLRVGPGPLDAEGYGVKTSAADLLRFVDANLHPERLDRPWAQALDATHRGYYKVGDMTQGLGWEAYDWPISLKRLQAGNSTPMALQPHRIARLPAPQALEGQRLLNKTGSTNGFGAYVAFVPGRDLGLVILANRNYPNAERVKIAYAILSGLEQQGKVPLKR
Sequence of TEM-1 (Class A) β-lactamase (P62593 24-286 limits assumed): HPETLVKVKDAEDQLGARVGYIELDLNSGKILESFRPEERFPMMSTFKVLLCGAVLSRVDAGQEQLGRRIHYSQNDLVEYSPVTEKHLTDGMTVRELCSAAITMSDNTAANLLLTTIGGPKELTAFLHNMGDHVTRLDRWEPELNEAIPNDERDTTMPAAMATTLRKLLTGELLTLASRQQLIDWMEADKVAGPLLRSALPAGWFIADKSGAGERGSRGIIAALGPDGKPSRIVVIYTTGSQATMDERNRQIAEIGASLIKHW
Sequence of KPC (Class A) β-lactamase (Q9F663 25-293 limits assumed): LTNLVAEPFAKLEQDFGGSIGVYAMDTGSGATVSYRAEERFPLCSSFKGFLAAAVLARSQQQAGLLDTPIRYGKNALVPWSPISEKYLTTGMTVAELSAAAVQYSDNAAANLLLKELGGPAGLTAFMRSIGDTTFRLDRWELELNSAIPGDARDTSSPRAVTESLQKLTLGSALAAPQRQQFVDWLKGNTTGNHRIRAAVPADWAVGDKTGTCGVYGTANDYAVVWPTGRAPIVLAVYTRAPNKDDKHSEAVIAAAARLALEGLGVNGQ

The term IC50 denotes the point on the concentration scale where inhibition reaches its midpoint. Consider `N=C(N)NOCCONC(=O)[C@@H]1CC[C@@H]2CN1C(=O)N2OS(=O)(=O)O` [Compound 1], for which the IC50 turned out to be 1550 nM in assay [1]; 43.1 nM in assay [2]; 20.2 nM in assay [3]; 31.9 nM in assay [4]; 98.6 nM in assay [5]; 5000 nM in assay [6]. In assay [7], the half-maximal inhibitory concentration (IC50) was 38.9 nM.
